Data: article PMC10256634, “Comparative in vivo toxicokinetics of silver powder, nanosilver and soluble silver compounds after oral administration to rats” (Archives of Toxicology, 2023)
“And” between values parts separate entries of the source, which are not always exact repeats. Equal values may be shown once.

Tests used:
[1] = Clinical observations, bodyweight, organ weights and macroscopic examination; assay type: in vivo, Sprague–Dawley rats; details: repeated dose study, 175 mg AgAc/kg bw/d
Procedure: Animals were inspected visually at least twice daily for evidence of clinical signs or change in health status. As applicable, injection sites were regularly assessed post-dosing for any local reaction. Bodyweight was measured for all single-dose treatments before administration (typically the day before treatment), on the day of administration and on the day of termination. For the 28-day repeated administration phase, the bodyweight of each animal was recorded pre-treatment, on Day 1 of treatment and then at weekly intervals (including on the day of termination).
Following final blood sampling, animals were euthanised using carbon dioxide asphyxiation, with subsequent exsanguination, prior to macroscopic examination for the investigation of any abnormalities. Tissues for analysis of total Ag content were obtained from animals administered the test items for 28 days. The tissue set comprised: brain (whole), bone marrow (from both femurs), small intestine (duodenum/ileum/jejenum), liver, spleen, ovaries, testes (excluding epididymides) and uterus. The luminal contents of GI tract samples were thoroughly flushed out with cold purified water. After weighing, tissues were retained frozen (− 20 °C).

[2] = Toxicokinetics after 28 days repeated oral gavage dosing, total Ag in whole blood (ICP-MS); details: for AUC0-t / DN AUC0-t: 0 to 96 h post-dose
serum copper (Cu) levels = test: Serum Cu levels after 28 days repeated oral dosing (ICP-MS); details: for Serum Cu conc. % of Control group mean: mean (SD)
Procedure: Samples of whole blood (0.2 mL) were obtained from the jugular vein of animals, with lithium heparin integrated as an anticoagulant. […] Each sample was gently mixed and frozen on dry ice, pending transfer to storage at − 20 °C. […] Serum was obtained by centrifugation (10 min, 2000 RCF) and stored frozen until analysis.
Previous robust TK studies involving the analysis of Ag in biological matrices have utilised aggressive digestion techniques, typically based on digestion/mineralisation in concentrated HNO3 with microwave-accelerated reaction systems. To avoid subsequent precipitation of Ag into insoluble complexes and subsequent loss for analysis, sample stabilisation with an excess of chloride (e.g. HCl) is appropriate. These principles were adopted for sample processing in this investigation. In brief, each blood subsample (50 µL) was combined with 800 µL concentrated HNO3 (65–70%) in a glass pyrex tube. The contents were then digested in an Ultrawave (Milestone, Italy) digester using digestion programme ‘blood’. Afterwards, 800 μL HCl (37%) was added, and 400 μL of the HNO3/HCl digest was combined with 2.60 mL of rhodium internal standard followed by rotary mixing for at least 30 min. The processed sample was then analysed on an Agilent 7900 × inductively coupled plasma mass spectrometer (ICP-MS). […] The digestion was 20 min at elevated temperature and pressure (200 °C, 100 bar, 1500 W). Then, 3 parts of concentrated HCl (35–40%) were added, and the digest was stored at − 20 °C until analysis. A 50 µL subsample was subsequently mixed with 3.95 mL of rhodium internal standard and analysed by ICP-MS. Analysis occurred within the 48-day assured stability period.
All bioanalytical methods underwent validation before deployment. ICP-MS runs included quality control samples and a multilevel calibration. Lower limits of quantitation (LLOQ) for the analytical methods were, respectively, 10 ng/mL for total Ag in blood, 5 ng/mL for total Ag in tissue and 30 ng Cu/mL for Cu in serum.

[3] = 28 d oral 5 mg/kg bw/d [Ag equivalent 3.25 AgAc, 3.2 AgNO3], female
[4] = 28 d oral 5 mg/kg bw/d [Ag equivalent 3.25 AgAc, 3.2 AgNO3], male
[5] = 28 d oral 175 [114 Ag] mg/kg bw/d, female
[6] = 28 d oral 175 [114 Ag] mg/kg bw/d, male
[7] = 28 d oral 125 [80 Ag] mg/kg bw/d, female
[8] = 28 d oral 125 [80 Ag] mg/kg bw/d, male

SMILES: CC(=O)[O-].[Ag+] [AgAc, Silver(I) acetate]
- bodyweight [1]: slight depression in weight gain during Week 1
- AUC0-t [2, 3]: 10,200 ng.h/mL
- DN AUC0-t [2, 3]: 2960 (ng.h/mL)/(mg/kg bw/d)
- AUC0-t [2, 4]: 6220 ng·h/mL
- DN AUC0-t [2, 4]: 1770 (ng.h/mL)/(mg/kg bw/d)
- Cmax [2, 3]: 216 ng/mL
- Tmax [2, 3]: 3 h
- t1/2 [2, 3]: 41.3 h
- Cmax [2, 4]: 153 ng/mL
- Tmax [2, 4]: 7.5 h
- t1/2 [2, 4]: 32.1 h
- AUC0-t [2, 5]: 51,000 ng.h/mL
- DN AUC0-t [2, 5]: 400 (ng.h/mL)/(mg/kg bw/d)
- AUC0-t [2, 6]: 43,000 ng.h/mL
- DN AUC0-t [2, 6]: 342 (ng.h/mL)/(mg/kg bw/d)
- Cmax [2, 5]: 930 ng/mL
- Tmax [2, 5]: 3 h
- t1/2 [2, 5]: 40.4 h
- Cmax [2, 6]: 766 ng/mL
- Tmax [2, 6]: 3 h
- t1/2 [2, 6]: 36.3 h

SMILES: O=[N+]([O-])[O-].[Ag+] [AgNO3, silver(I) nitrate]
- Serum Cu conc. % of Control group mean (serum copper (Cu) levels; 28 d oral 5 [3.2 Ag] mg/kg bw/d, female): 101 (10) % of Control group mean
- Serum Cu conc. % of Control group mean (serum copper (Cu) levels; 28 d oral 5 [3.2 Ag] mg/kg bw/d, male): 111 (25) % of Control group mean
- Serum Cu conc. % of Control group mean (serum copper (Cu) levels; 28 d oral 55 [35 Ag] mg/kg bw/d, female): 81 (11) % of Control group mean
- Serum Cu conc. % of Control group mean (serum copper (Cu) levels; 28 d oral 55 [35 Ag] mg/kg bw/d, male): 79 (13) % of Control group mean
- Serum Cu conc. % of Control group mean (serum copper (Cu) levels; [7]): 74 % of Control group mean and 74 (15) % of Control group mean
- Serum Cu conc. % of Control group mean (serum copper (Cu) levels; [8]): 62 % of Control group mean and 62 (12) % of Control group mean
- Effect on circulating Cu levels (serum copper (Cu) levels; 28 d oral, AgMP up to limit dose 1000 mg/kg bw/d, AgNO3 detectable at 55, statistically significant at 125 mg/kg bw/d): reduction in circulating Cu levels was observed
- AUC0-t [2, 3]: 7690 ng·h/mL
- AUC0-t [2, 4]: 5470 ng·h/mL
- Cmax [2, 3]: 177 ng/mL
- Tmax [2, 3]: 6 h
- t1/2 [2, 3]: 37.5 h
- Cmax [2, 4]: 132 ng/mL
- Tmax [2, 4]: 4.5 h
- t1/2 [2, 4]: 42.1 h
- AUC0-t [2, 7]: 54,100 ng.h/mL
- AUC0-t [2, 8]: 42,800 ng.h/mL
- Cmax [2, 7]: 997 ng/mL
- Tmax [2, 7]: 18 h
- t1/2 [2, 7]: 39.8 h
- Cmax [2, 8]: 738 ng/mL
- Tmax [2, 8]: 12 h
- t1/2 [2, 8]: 42.0 h
